Biological target: T1, hCAII (Homo sapiens, UniProt P00918+Q96SW2)
T1 construct: HEK293 cells, a line known to abundantly express hCAII; endogenous in cells; host or cells: HEK293
Test: single-point hCAII degradation screen in HEK293 cells, western blot
Assay type: cell-based
Details: 5 μM, 24 h; for activity in single-point screen (hCAII degradation): vs DMSO vehicle
Protocol: Following the confirmation of candidate hCAII’s in vitro activity, candidate degraders 1–10 were evaluated for their degradation of hCAII using HEK293 cells, a line known to abundantly express hCAII.[48] To obtain a preliminary evaluation of the activity of these compounds, an initial single-point screen was performed with HEK293 cells dosed with individual degrader candidates at a final concentration of 5 μM for 24 h prior to cell lysis. The relative abundance of hCAII in whole cell lysates was then evaluated via western blot analysis (see the Experimental Section for details).
Figure 2 Single-point activity screen of degrader candidates 1–10. Western blot analysis of HEK293 cells treated with degrader candidate (5 μM final concentration) or vehicle (DMSO) for 24 h. […] Degraders 4 and 5 were identified as active from this screen. Full images of the western blots are provided within the Supporting Information (Figure S1).
HEK293 cells were cultured in Dulbecco’s modified Eagle’s medium (DMEM, Gibco, 4.5 g/L glucose) supplemented with 10% fetal bovine serum (FBS), 1% sodium pyruvate, and 1% penicillin/streptomycin. Cells were grown at 37 °C in a humidified 5% CO2 atmosphere and regularly tested for mycoplasma.
After reaching 90% confluency, HEK293 cells were trypsinized, counted, and plated with 2 mL media at 2 × 10^6 cells per well on a tissue-culture-treated, 6-well plate. At the appropriate number of hours before reaching ∼90% confluency, cells were treated with DMSO solutions of the appropriate compounds (final concentration 0.5% DMSO per well). Upon reaching 90% confluency, typically 72 h, culture media were removed and the cells were washed with cold Dulbecco’s phosphate-buffered saline (DPBS). Lysis buffer, composed of cell lysis buffer (Cell Signaling Technology, 9803), protease inhibitor cocktail (Cell Signaling Technology, 5872), and 1 mM phenylmethylsulfonylfluoride, was added to each well, and the plates were rocked at 4 °C for 20 min. Cells were then scraped from the bottom of the plates, and the supernatant was collected after spinning down at 14,000g at 4 °C for 10 min and frozen at −80 °C. Lysates were thawed on ice, and the total protein concentration was measured using a Pierce bicinchoninic acid protein assay (Thermo Fisher Scientific, 23225). […] The immunoblot was then analyzed using the ImageJ software as an 8-bit image. The brightness and contrast of the image were adjusted, and the integrated density was calculated for each protein band using the gel lane analysis tool. Relative hCAII expression was calculated by normalizing the hCAII/β-actin ratio in compound-treated wells to the hCAII/β-actin ratio in vehicle (DMSO)-treated wells and indicated as “hCAII Abundance (% DMSO)”.

| SMILES | protein degradation quantified by western blot | activity in single-point screen (hCAII degradation) |
| --- | --- | --- |
| NS(=O)(=O)c1ccc(C(=O)NCCCOCCCCOCCCNc2cccc3c2C(=O)N(C2CCC(=O)NC2=O)C3=O)cc1 (stereo not shown) [Compound 4, N-(3-(4-(3-((2-(2,6-Dioxopiperidin-3-yl)-1,3-dioxoisoindolin-4-yl)amino)propoxy)butoxy)propyl)-4-sulfamoylbenzamide] | 64% | active |
| NS(=O)(=O)c1ccc(C(=O)NCCCOCCOCCOCCCNc2cccc3c2C(=O)N(C2CCC(=O)NC2=O)C3=O)cc1 (stereo not shown) [Compound 5, N-(3-(2-(2-(3-((2-(2,6-Dioxopiperidin-3-yl)-1,3-dioxoisoindolin-4-yl)amino)propoxy)ethoxy)ethoxy)propyl)-4-sulfamoylbenzamide] | 85% | active |
